Experimental data taken from the NIST ThermoML archive (doi:10.1016/j.fluid.2006.03.020).
± gives the expanded uncertainty stated by the source.

Assay: excess molar enthalpy (molar enthalpy of mixing); xn = mol fraction of the nth substance listed
Settings: 303.15 K, 101 kPa, Liquid, Flow calorimetry

C1COCCO1 [1,4-dioxane] + CCCCCCCC
Settings	excess molar enthalpy [kJ/mol]
x1 = 0.0577	0.412 ± 0.012
x1 = 0.1002	0.675 ± 0.013
x1 = 0.151	0.956 ± 0.013
x1 = 0.2075	1.22 ± 0.014
x1 = 0.2491	1.4 ± 0.015
x1 = 0.3048	1.57 ± 0.016
x1 = 0.3676	1.739 ± 0.017
x1 = 0.4092	1.806 ± 0.017
x1 = 0.4536	1.874 ± 0.017
x1 = 0.507	1.892 ± 0.017
x1 = 0.5583	1.895 ± 0.017
x1 = 0.6089	1.833 ± 0.017
x1 = 0.6599	1.755 ± 0.017
x1 = 0.6959	1.674 ± 0.016
x1 = 0.7553	1.506 ± 0.015
x1 = 0.8045	1.31 ± 0.015
x1 = 0.8586	1.04 ± 0.014
x1 = 0.8997	0.802 ± 0.013
x1 = 0.9352	0.548 ± 0.013

CCCCCCCC [octane] + C1CCCCC1
Settings	excess molar enthalpy [kJ/mol]
x1 = 0.0275	0.052 ± 0.01
x1 = 0.0507	0.08 ± 0.01
x1 = 0.0896	0.126 ± 0.01
x1 = 0.1482	0.173 ± 0.01
x1 = 0.1912	0.206 ± 0.01
x1 = 0.2487	0.23 ± 0.01
x1 = 0.2922	0.246 ± 0.01
x1 = 0.3709	0.259 ± 0.01
x1 = 0.4676	0.258 ± 0.01
x1 = 0.5738	0.24 ± 0.01
x1 = 0.642	0.216 ± 0.01
x1 = 0.7256	0.18 ± 0.01
x1 = 0.79	0.149 ± 0.01
x1 = 0.8267	0.124 ± 0.01
x1 = 0.869	0.099 ± 0.01
x1 = 0.8976	0.075 ± 0.01

C1COCCO1 [1,4-dioxane] + C1CCCCC1
Settings	excess molar enthalpy [kJ/mol]
x1 = 0.0547	0.37 ± 0.012
x1 = 0.153	0.883 ± 0.013
x1 = 0.2558	1.26 ± 0.014
x1 = 0.3916	1.537 ± 0.015
x1 = 0.5072	1.59 ± 0.016
x1 = 0.6511	1.45 ± 0.015
x1 = 0.7029	1.32 ± 0.014
x1 = 0.7606	1.12 ± 0.014
x1 = 0.8499	0.79 ± 0.013
x1 = 0.9288	0.406 ± 0.012
